Data on 20 compounds can be found in patent US9109004B2, “Progesterone receptor antagonists” (Bayer Intellectual Property GmbH, priority 2010, dated 2015).

The assay concerns the target T1, human progesterone receptor A (Homo sapiens, UniProt P06401).
T1 construct: expressed in transfected cells; host or cells: SK-N-MC human neuroblastoma cells, stably transfected
T1 sequence (P06401 1-769 isoform P06401-2): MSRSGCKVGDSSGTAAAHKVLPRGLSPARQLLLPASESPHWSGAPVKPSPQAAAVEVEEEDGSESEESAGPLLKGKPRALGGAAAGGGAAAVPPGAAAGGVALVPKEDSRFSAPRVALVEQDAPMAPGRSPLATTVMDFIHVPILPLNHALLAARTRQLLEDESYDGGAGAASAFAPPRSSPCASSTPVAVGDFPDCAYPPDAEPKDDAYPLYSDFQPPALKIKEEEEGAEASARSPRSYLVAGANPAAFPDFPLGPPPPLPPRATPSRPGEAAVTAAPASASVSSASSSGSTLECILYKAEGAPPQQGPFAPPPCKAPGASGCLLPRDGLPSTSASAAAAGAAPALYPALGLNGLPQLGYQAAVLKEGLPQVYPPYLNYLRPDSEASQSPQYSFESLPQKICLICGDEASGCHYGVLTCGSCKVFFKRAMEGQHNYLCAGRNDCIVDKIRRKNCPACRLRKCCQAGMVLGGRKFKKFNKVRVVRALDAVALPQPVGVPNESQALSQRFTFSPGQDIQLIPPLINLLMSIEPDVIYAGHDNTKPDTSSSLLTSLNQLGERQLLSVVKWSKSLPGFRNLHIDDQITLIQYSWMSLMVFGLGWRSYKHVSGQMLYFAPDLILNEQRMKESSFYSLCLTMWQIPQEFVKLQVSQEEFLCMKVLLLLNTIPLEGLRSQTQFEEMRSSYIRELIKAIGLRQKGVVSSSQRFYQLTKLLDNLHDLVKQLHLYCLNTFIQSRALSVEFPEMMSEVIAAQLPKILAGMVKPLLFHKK
Put plainly: Progesterone-receptor-antagonistic action in stably transfected SK-N-MC cells, MTV-LUC reporter (PR-A). Format: cell-based. The note with it: antagonistic potency vs 0.1 nmol/l promegestone, 24 hours, luciferase. How it is done:
Progesterone-Receptor-Antagonistic Action in Stable Transfectants of Human Neuroblastoma Cells (SK-N-MC Cells) with the Human Progesterone A or Progesterone B Receptor and an MTV-LUC Reporter Construct
SK-N-MC cells (human neuroblastoma cells) that have been stably transfected with plasmids that express the human progesterone receptor B (pRChPR-B-neo) or the human progesterone receptor A (pRChPR-A-neo) and a reporter construct (pMMTV-LUC), were incubated for 24 hours either in the absence (negative control) or in the presence of increasing amounts of the particular test compound (0.01 nmol/l, 0.1 nmol/l, 1 nmol/l, 10 nmol/l, 100 nmol/l and 1 μmol/l), to determine the agonistic efficacy. As positive control of reporter gene induction, the cells were treated with the synthetic gestagen promegestone (0.01 nmol/l, 0.1 nmol/l, 1 nmol/l, 10 nmol/l, 100 nmol/l and 1 μmol/l). For determination of the antagonistic activity, the cells were treated with 0.1 nmol/l promegestone and additionally with increasing amounts of the particular test compound (0.01 nmol/l, 0.1 nmol/l, 1 nmol/l, 10 nmol/l, 100 nmol/l and 1 μmol/l). The activity of the reporter gene LUC (LUC=luciferase) was determined in the cell lysates and was measured as RLU (relative light units). All measured values are given as % efficacy and as EC50 or IC50 concentrations.
As for `CN(Cc1cccnc1)C(=O)c1ccc([C@H]2C[C@@]3(C)[C@@H](CC[C@@]3(O)C(F)(F)C(F)(F)F)[C@@H]3CCC4=CC(=O)CCC4=C32)cc1` [Example 32, 4-[(11β,17β)-17-hydroxy-3-oxo-17-(pentafluoroethyl)estra-4,9-dien-11-yl]-N-methyl-N-(pyridin-3-ylmethyl)benzamide], the IC50 is 0.375 µM.

`CN(Cc1ccncc1)C(=O)c1ccc([C@H]2C[C@@]3(C)[C@@H](CC[C@@]3(O)C(F)(F)C(F)(F)F)[C@@H]3CCC4=CC(=O)CCC4=C32)cc1` [Example 33, 4-[(11β,17β)-17-hydroxy-3-oxo-17-(pentafluoroethyl)estra-4,9-dien-11-yl]-N-methyl-N-(pyridin-4-ylmethyl)benzamide] gave an IC50 of 0.00698 µM. Turning to `C[C@]12C[C@H](c3ccc(C(=O)NCc4ccccc4)cc3)C3=C4CCC(=O)C=C4CC[C@H]3[C@@H]1CC[C@@]2(O)C(F)(F)C(F)(F)F` [Example 34, N-benzyl-4-[(11β,17β)-17-hydroxy-3-oxo-17-(pentafluoroethyl)estra-4,9-dien-11-yl]benzamide], the midpoint of inhibition, the IC50, lay at 0.0144 µM. For `COc1ccc(CNC(=O)c2ccc([C@H]3C[C@@]4(C)[C@@H](CC[C@@]4(O)C(F)(F)C(F)(F)F)[C@@H]4CCC5=CC(=O)CCC5=C43)cc2)cc1` [Example 35, 4-[(11β,17β)-17-hydroxy-3-oxo-17-(pentafluoroethyl)estra-4,9-dien-11-yl]-N-(4-methoxybenzyl)benzamide] the value was 0.034 µM. `C[C@]12C[C@H](c3ccc(C(=O)NCc4ccc(Cl)cc4)cc3)C3=C4CCC(=O)C=C4CC[C@H]3[C@@H]1CC[C@@]2(O)C(F)(F)C(F)(F)F` [Example 36, N-(4-chlorobenzyl)-4-[(11β,17β)-17-hydroxy-3-oxo-17-(pentafluoroethyl)estra-4,9-dien-11-yl]benzamide]: half-maximal inhibition (IC50) was put at 0.02 µM. On to `CC(=O)NCCNC(=O)c1ccc([C@H]2C[C@@]3(C)[C@@H](CC[C@@]3(O)C(F)(F)C(F)(F)F)[C@@H]3CCC4=CC(=O)CCC4=C32)cc1` [Example 37, N-(2-acetamidoethyl)-4-[(11β,17β)-17-hydroxy-3-oxo-17-(pentafluoroethyl)estra-4,9-dien-11-yl]benzamide], for which the IC50 is 0.385 µM. For `COC(=O)c1ccc(NC(=O)c2ccc([C@H]3C[C@@]4(C)[C@@H](CC[C@@]4(O)C(F)(F)C(F)(F)F)[C@@H]4CCC5=CC(=O)CCC5=C43)cc2)cc1` [Example 38, methyl-4-({4-[(11β,17β)-17-hydroxy-3-oxo-17-(pentafluoroethyl)estra-4,9-dien-11-yl]benzoyl}amino)benzoate] the value was 0.00188 µM; for `C[C@]12C[C@H](c3ccc(C(=O)N4CCc5ccccc5C4)cc3)C3=C4CCC(=O)C=C4CC[C@H]3[C@@H]1CC[C@@]2(O)C(F)(F)C(F)(F)F` [Example 39, (11β,17β)-11-[4-(3,4-dihydroisoquinolin-2(1H)-ylcarbonyl)phenyl]-17-hydroxy-17-(pentafluoroethyl)estra-4,9-dien-3-one], 0.0095 µM; for `C[C@]12C[C@H](c3ccc(C(=O)N4CCN(Cc5ccccc5)CC4)cc3)C3=C4CCC(=O)C=C4CC[C@H]3[C@@H]1CC[C@@]2(O)C(F)(F)C(F)(F)F` [Example 40, (11β,17β)-11-{4-[(4-benzylpiperazin-1-yl)carbonyl]phenyl}-17-hydroxy-17-(pentafluoroethyl)estra-4,9-dien-3-one], 0.117 µM. The figure for `C[C@]12C[C@H](c3ccc(C(=O)Nc4ccc(C(N)=O)cc4)cc3)C3=C4CCC(=O)C=C4CC[C@H]3[C@@H]1CC[C@@]2(O)C(F)(F)C(F)(F)F` [Example 41, N-(4-carbamoylphenyl)-4-[(11β,17β)-17-hydroxy-3-oxo-17-(pentafluoroethyl)estra-4,9-dien-11-yl]benzamide] is 0.0047 µM; for `C[C@]12C[C@H](c3ccc(C(=O)NC4CC4)cc3)C3=C4CCC(=O)C=C4CC[C@H]3[C@@H]1CC[C@@]2(O)C(F)(F)C(F)(F)F` [Example 42, N-cyclopropyl-4-[(11β,17β)-17-hydroxy-3-oxo-17-(pentafluoroethyl)estra-4,9-dien-11-yl]benzamide] it is 0.0073 µM; for `CN(CCc1ccccc1)C(=O)c1ccc([C@H]2C[C@@]3(C)[C@@H](CC[C@@]3(O)C(F)(F)C(F)(F)F)[C@@H]3CCC4=CC(=O)CCC4=C32)cc1` [Example 43, 4-[(11β,17β)-17-hydroxy-3-oxo-17-(pentafluoroethyl)estra-4,9-dien-11-yl]-N-methyl-N-(2-phenylethyl)benzamide] it is 0.0108 µM. The figure for `C[C@]12C[C@H](c3ccc(C(=O)N4CCN(CCc5ccccc5)CC4)cc3)C3=C4CCC(=O)C=C4CC[C@H]3[C@@H]1CC[C@@]2(O)C(F)(F)C(F)(F)F` [Example 44, (11β,17β)-17-hydroxy-17-(pentafluoroethyl)-11-(4-{[4-(2-phenylethyl)piperazin-1-yl]carbonyl}phenyl)estra-4,9-dien-3-one] is 0.025 µM. `C[C@]12C[C@H](c3ccc(C(=O)N4CCN(c5ccncc5)CC4)cc3)C3=C4CCC(=O)C=C4CC[C@H]3[C@@H]1CC[C@@]2(O)C(F)(F)C(F)(F)F` [Example 45, (11β,17β)-17-hydroxy-17-(pentafluoroethyl)-11-(4-{[4-(pyridin-4-yl)piperazin-1-yl]carbonyl}phenyl)estra-4,9-dien-3-one] showed an IC50 of 0.026 µM.

The compound `C[C@]12C[C@H](c3ccc(C(=O)N4CCN(c5cnccn5)CC4)cc3)C3=C4CCC(=O)C=C4CC[C@H]3[C@@H]1CC[C@@]2(O)C(F)(F)C(F)(F)F` [Example 46, (11β,17β)-17-hydroxy-17-(pentafluoroethyl)-11-(4-{[4-(pyrazin-2-yl)piperazin-1-yl]carbonyl}phenyl)estra-4,9-dien-3-one] had an IC50 of 0.0043 µM. The figure for `CN(C)CCN1CCN(C(=O)c2ccc([C@H]3C[C@@]4(C)[C@@H](CC[C@@]4(O)C(F)(F)C(F)(F)F)[C@@H]4CCC5=CC(=O)CCC5=C43)cc2)CC1` [Example 47, (11β,17β)-11-[4-({4-[2-(dimethylamino)ethyl]piperazin-1-yl}carbonyl)phenyl]-17-hydroxy-17-(pentafluoroethyl)estra-4,9-dien-3-one] is 0.346 µM; for `C[C@]12C[C@H](c3ccc(C(=O)N4CCN(CCN5CCCC5)CC4)cc3)C3=C4CCC(=O)C=C4CC[C@H]3[C@@H]1CC[C@@]2(O)C(F)(F)C(F)(F)F` [Example 48, (11β,17β)-17-hydroxy-17-(pentafluoroethyl)-11-[4-({4-[2-(pyrrolidin-1-yl)ethyl]piperazin-1-yl}carbonyl)phenyl]estra-4,9-dien-3-one] it is 0.667 µM.

`C[C@]12C[C@H](c3ccc(C(=O)N4CCN(Cc5ccncc5)CC4)cc3)C3=C4CCC(=O)C=C4CC[C@H]3[C@@H]1CC[C@@]2(O)C(F)(F)C(F)(F)F` [Example 49, (11β,17β)-17-hydroxy-17-(pentafluoroethyl)-11-(4-{[4-(pyridin-4-ylmethyl)piperazin-1-yl]carbonyl}phenyl)estra-4,9-dien-3-one] returned an IC50 of 0.0076 µM. The compound `CN(CCc1ccccn1)C(=O)c1ccc([C@H]2C[C@@]3(C)[C@@H](CC[C@@]3(O)C(F)(F)C(F)(F)F)[C@@H]3CCC4=CC(=O)CCC4=C32)cc1` [Example 50, 4-[(11β,17β)-17-hydroxy-3-oxo-17-(pentafluoroethyl)estra-4,9-dien-11-yl]-N-methyl-N-[2-(pyridin-2-yl)ethyl]benzamide] gave an IC50 of 0.0157 µM. For `CN(Cc1ccccc1)C(=O)c1ccc([C@H]2C[C@@]3(C)[C@@H](CC[C@@]3(O)C(F)(F)C(F)(F)F)[C@@H]3CCC4=CC(=O)CCC4=C32)cc1` [Example 51, N-benzyl-4-[(11β,17β)-17-hydroxy-3-oxo-17-(pentafluoroethyl)estra-4,9-dien-11-yl]-N-methylbenzamide] the value was 0.009 µM.
